The source of these data is ChEMBL document CHEMBL5543145, “Discovery of the First-in-Class G9a/GLP PROTAC Degrader” (J Med Chem, 2024).

Calls of active or inactive are those of the source. The rule behind the calls is not given here.

In series [1] the target is Histone-lysine N-methyltransferase SMYD3 (Homo sapiens) (UniProt Q9H7B4). The series is described as follows: Inhibition of SMYD3 (unknown origin) at 10 uM relative to control.
For series [2], the target named is Protein arginine N-methyltransferase 1 (Homo sapiens) (UniProt Q99873). The series is described as follows: Inhibition of PRMT1 (unknown origin) at 10 uM relative to control.
Series [3] concerns the target T1, von Hippel-Lindau disease tumor suppressor/Histone-lysine N-methyltransferase EHMT1 (Homo sapiens, UniProt Q9H9B1+P40337). The series is described as follows: PROTAC activity at GLP/VHL in human 22Rv1 cells assessed as induction of GLP degradation at 3 uM measured at 4 hrs by Western blot analysis. In kind it is cell-based.
Another series is filed under the species Homo sapiens. The experiment in a line: Inhibition of SET6 (unknown origin) at 10 uM relative to control.
The target of series [4] is T2, von Hippel-Lindau disease tumor suppressor/Histone-lysine N-methyltransferase EHMT2 (Homo sapiens, UniProt Q96KQ7+P40337). The series is described as follows: PROTAC activity at G9a/VHL in human 22Rv1 cells assessed as induction of G9a degradation at 3 uM measured at 4 hrs by Western blot analysis. In kind it is cell-based.
Series [5] has as its target T2, von Hippel-Lindau disease tumor suppressor/Histone-lysine N-methyltransferase EHMT2. The series is described as follows: PROTAC activity at G9a/VHL in human 22Rv1 cells assessed as induction of G9a degradation at 3 uM measured at 24 to 48 hrs by Western blot analysis. The following applies: time 24-48 hrs. The class given is cell-based. (In general: A western blot detects proteins with antibodies after separation by electrophoresis.)

A further series has as its system K562. The experiment in a line: Cytotoxicity against human K562 cells assessed as reduction in cell viability incubated for 8 days. The class given is functional, cell-based. The note with it: K562, 192 h.
The target in series [6] is Histone-lysine N-methyltransferase EZH2 (Homo sapiens) (UniProt Q15910). The series is described as follows: Inhibition of EZH2 (unknown origin) at 10 uM relative to control.
The target in series [7] is Histone-lysine N-methyltransferase 2A (Homo sapiens) (UniProt Q03164). The experiment in a line: Inhibition of MLL1 (unknown origin) at 10 uM relative to control.
Series [8] is described as follows: Cmax in C57BL6 mouse plasma at 50 mg/kg, ip measured at 8 hrs by LC-MS/MS analysis. The class given is ADME, organism-based.
Series [9] addresses Histone-lysine N-methyltransferase SETD1B (Homo sapiens) (UniProt Q9UPS6). The experiment in a line: Inhibition of SET1b (unknown origin) at 10 uM relative to control.
For series [10], the target named is T2, von Hippel-Lindau disease tumor suppressor/Histone-lysine N-methyltransferase EHMT2. The experiment in a line: PROTAC activity at G9a/VHL in human K562 cells assessed as induction of G9a degradation at 3 uM incubated for 24 hrs by Western blot analysis. In kind it is cell-based.
The target of series [11] is Histone-lysine N-methyltransferase EZH1 (Homo sapiens) (UniProt Q92800). The experiment in a line: Inhibition of EZH1 (unknown origin) at 10 uM relative to control.
Series [12] addresses Histone-lysine N-methyltransferase SETD2 (Homo sapiens) (UniProt Q9BYW2). The experiment in a line: Inhibition of SETD2 (unknown origin) at 10 uM relative to control.
Series [13] concerns the target PRMT5/MEP50 complex (Homo sapiens) (UniProt O14744+Q9BQA1). The series is described as follows: Inhibition of PRMT5/MEP50 (unknown origin) at 10 uM relative to control. The class given is protein-complex assay.
For series [14], the target named is T1, von Hippel-Lindau disease tumor suppressor/Histone-lysine N-methyltransferase EHMT1. The series is described as follows: PROTAC activity at GLP/VHL in human K562 cells assessed as induction of GLP degradation at 3 uM incubated for 24 hrs by Western blot analysis. In kind it is cell-based.
The subject of another series is NCI-H1299. The experiment in a line: Cytotoxicity against human NCI-H1299 cells assessed as growth inhibition incubated for 8 days. The note with it: NCI-H1299, 192 h, time 8 day. The class given is functional.
Series [15] addresses T2, von Hippel-Lindau disease tumor suppressor/Histone-lysine N-methyltransferase EHMT2. The experiment in a line: PROTAC activity at G9a/VHL in human 22Rv1 cells assessed as effect on G9a level upto 3 uM measured for 24 hrs by Western blot analysis. The class given is cell-based.
The target is the same in series [16]. The experiment in a line: PROTAC activity at G9a/VHL in human 22Rv1 cells assessed as induction of G9a degradation at 3 uM by Western blot analysis. The class given is cell-based. The note with it: time <= 48.0 hrs, TDE = time-dependent effect.

T2 sequence (P40337 whole entry partner): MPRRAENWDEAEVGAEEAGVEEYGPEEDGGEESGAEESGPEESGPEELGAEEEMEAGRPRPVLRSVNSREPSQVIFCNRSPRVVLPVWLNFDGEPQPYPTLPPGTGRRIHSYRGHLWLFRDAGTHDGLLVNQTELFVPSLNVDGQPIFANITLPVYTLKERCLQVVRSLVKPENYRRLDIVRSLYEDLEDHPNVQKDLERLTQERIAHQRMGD
T2 sequence (Q96KQ7 2-1210 limits assumed): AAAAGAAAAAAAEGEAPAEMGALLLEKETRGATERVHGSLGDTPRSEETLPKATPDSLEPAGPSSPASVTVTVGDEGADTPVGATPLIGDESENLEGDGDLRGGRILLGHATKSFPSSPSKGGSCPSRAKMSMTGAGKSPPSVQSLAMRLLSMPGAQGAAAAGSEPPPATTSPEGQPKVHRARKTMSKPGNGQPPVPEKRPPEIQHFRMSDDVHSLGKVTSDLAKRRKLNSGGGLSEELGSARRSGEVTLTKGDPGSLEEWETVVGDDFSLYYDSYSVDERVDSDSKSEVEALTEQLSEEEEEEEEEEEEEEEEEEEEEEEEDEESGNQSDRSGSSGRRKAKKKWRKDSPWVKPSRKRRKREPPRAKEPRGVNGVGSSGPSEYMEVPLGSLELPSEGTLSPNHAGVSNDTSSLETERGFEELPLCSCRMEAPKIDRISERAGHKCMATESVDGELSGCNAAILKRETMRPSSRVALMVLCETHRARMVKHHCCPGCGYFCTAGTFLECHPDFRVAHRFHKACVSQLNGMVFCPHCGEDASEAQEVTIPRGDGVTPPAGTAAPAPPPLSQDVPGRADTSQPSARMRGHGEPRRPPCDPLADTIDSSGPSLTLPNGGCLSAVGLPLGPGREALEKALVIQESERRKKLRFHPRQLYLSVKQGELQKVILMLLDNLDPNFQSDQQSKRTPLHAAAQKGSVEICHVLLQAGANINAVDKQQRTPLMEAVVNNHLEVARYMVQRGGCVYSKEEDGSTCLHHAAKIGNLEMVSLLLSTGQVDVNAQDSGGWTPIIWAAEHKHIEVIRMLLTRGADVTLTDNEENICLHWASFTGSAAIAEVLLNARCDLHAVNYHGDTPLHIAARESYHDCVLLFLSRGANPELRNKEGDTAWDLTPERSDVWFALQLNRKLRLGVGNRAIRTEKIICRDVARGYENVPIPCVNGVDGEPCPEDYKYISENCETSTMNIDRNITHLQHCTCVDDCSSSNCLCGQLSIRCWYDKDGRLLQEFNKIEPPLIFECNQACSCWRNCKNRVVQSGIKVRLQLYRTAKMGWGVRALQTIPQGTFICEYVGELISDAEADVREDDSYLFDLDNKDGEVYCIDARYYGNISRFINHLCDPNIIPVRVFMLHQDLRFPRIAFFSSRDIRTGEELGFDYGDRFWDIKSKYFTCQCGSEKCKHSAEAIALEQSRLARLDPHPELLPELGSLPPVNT
T1 sequence (P40337 whole entry partner): as the sequence (P40337 whole entry partner) above
T1 sequence (Q9H9B1 2-1298 limits assumed): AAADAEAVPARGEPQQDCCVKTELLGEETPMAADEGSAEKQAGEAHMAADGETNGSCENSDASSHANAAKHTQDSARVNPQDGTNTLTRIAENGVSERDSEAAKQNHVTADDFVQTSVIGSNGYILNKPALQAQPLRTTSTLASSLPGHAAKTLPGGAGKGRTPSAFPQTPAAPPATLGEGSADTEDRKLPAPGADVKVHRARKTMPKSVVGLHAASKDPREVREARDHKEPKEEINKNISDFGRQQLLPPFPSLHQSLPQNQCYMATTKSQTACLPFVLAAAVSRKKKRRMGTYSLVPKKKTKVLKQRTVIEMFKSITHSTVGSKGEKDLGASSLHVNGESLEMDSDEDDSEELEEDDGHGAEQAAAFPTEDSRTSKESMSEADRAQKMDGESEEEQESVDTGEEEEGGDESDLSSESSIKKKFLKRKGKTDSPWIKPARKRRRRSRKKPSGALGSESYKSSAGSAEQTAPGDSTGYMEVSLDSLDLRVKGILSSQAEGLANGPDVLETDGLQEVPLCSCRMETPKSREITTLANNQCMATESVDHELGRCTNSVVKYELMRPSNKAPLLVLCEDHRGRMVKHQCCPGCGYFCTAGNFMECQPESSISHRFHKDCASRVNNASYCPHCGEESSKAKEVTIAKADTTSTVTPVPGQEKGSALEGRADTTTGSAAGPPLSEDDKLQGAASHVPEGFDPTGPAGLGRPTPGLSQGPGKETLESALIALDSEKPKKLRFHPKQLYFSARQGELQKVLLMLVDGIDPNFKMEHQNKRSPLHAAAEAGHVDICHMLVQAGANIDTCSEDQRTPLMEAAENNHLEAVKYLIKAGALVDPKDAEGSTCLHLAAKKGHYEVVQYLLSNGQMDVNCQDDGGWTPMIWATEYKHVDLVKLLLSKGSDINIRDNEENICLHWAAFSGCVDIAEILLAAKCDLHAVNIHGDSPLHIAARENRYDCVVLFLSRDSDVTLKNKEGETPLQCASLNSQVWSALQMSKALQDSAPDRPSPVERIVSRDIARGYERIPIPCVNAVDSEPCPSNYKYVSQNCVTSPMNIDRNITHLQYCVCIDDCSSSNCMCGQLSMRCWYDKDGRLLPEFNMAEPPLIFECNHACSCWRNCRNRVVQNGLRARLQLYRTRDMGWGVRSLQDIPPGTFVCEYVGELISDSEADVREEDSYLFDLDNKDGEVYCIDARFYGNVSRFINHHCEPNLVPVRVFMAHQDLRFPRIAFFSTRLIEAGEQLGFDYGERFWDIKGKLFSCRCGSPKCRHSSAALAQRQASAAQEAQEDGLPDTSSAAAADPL
Chain of Histone-lysine N-methyltransferase EZH1 (Homo sapiens) (Q92800 whole entry): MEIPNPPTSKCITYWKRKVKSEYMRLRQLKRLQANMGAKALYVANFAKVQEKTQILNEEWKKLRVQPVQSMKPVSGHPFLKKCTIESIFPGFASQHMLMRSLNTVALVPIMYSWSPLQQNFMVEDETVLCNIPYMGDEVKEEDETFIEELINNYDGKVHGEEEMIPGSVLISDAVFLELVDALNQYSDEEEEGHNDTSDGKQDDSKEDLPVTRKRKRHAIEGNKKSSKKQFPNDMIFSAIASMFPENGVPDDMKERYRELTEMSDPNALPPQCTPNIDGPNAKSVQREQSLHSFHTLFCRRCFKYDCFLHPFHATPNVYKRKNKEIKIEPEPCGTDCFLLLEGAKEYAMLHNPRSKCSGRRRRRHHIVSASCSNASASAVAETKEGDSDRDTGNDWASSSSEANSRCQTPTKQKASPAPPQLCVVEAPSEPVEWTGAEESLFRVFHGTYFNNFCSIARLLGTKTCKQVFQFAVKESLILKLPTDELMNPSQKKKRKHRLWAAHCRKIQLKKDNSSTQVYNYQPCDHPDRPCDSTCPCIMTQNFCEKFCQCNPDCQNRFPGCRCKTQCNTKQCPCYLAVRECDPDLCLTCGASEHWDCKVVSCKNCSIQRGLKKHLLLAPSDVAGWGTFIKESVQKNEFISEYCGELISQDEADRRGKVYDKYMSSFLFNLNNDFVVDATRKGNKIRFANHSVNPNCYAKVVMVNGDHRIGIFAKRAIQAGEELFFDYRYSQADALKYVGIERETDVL
Chain of Histone-lysine N-methyltransferase EZH2 (Homo sapiens) (Q15910 whole entry, looked up): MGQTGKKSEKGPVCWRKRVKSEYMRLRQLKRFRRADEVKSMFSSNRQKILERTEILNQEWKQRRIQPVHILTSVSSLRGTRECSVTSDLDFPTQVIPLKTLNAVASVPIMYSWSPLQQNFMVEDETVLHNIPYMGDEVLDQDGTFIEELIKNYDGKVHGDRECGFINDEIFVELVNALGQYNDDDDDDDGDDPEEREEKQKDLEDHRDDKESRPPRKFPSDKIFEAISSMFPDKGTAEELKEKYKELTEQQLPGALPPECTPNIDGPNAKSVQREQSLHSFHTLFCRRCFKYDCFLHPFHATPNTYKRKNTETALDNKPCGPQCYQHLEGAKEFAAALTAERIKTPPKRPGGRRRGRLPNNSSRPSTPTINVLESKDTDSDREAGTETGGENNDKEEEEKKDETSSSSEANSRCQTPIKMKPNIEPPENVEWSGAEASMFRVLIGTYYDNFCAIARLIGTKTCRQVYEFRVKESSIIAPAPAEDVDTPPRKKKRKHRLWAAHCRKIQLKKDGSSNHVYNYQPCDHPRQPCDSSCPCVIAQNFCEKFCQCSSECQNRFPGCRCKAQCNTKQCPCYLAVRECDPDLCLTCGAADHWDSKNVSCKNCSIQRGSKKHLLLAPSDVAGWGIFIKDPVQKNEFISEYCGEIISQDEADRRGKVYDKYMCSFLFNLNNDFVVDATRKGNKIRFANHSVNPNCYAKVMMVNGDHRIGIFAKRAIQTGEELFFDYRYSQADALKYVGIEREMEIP
Chain of Protein arginine N-methyltransferase 1 (Homo sapiens) (Q99873 whole entry, looked up): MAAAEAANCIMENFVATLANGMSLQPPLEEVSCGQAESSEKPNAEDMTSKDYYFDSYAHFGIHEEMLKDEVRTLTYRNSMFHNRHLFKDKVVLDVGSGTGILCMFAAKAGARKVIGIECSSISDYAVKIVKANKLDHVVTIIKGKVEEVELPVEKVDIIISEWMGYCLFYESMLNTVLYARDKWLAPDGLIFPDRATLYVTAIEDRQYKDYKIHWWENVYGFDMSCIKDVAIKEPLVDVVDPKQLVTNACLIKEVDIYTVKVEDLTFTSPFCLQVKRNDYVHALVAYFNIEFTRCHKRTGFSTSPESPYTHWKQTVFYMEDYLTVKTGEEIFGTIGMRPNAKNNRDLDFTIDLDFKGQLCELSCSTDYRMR
Chain of Histone-lysine N-methyltransferase SMYD3 (Homo sapiens) (Q9H7B4 whole entry): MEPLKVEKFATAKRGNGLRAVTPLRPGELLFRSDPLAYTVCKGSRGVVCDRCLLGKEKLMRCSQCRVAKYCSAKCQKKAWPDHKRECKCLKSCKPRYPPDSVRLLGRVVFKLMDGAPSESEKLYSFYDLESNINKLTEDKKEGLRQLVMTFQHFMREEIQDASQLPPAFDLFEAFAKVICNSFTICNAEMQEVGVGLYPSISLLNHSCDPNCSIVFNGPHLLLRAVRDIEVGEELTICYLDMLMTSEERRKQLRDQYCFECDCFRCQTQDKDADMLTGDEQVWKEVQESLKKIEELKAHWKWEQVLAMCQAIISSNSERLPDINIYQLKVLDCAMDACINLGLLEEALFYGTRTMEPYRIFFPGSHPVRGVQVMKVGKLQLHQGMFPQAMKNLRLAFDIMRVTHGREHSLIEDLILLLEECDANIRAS

In the case of `COc1cc2c(NC3CCN(CCCC(=O)NCCCCCCCCCCCC(=O)N[C@H](C(=O)N4C[C@H](O)C[C@H]4C(=O)NCc4ccc(-c5scnc5C)cc4)C(C)(C)C)CC3)nc(N3CCC(F)(F)CC3)nc2cc1OCCCN1CCCC1`, the inhibition (in series [1]; in [2]; in the series filed under Homo sapiens; in series [6]; in series [7]; in [9]) was over 50% each time. The inhibition in series [11], in series [12] and in series [13] was over 50% throughout. The outcome in series [3], in series [4], in series [10], in [14] and in series [15] was Active. In addition, the Activity was 100% in series [5] and “Tde” in series [16]. In the series with K562, the IC50 worked out at 2 µM. The Cmax in series [8] was over 5 µM. Besides, the GI50 in the series on NCI-H1299 turned out to be 5 µM.

One may read the inhibition as the drop in the measured response relative to a control, in per cent. The IC50 is the concentration that gives 50% inhibition. A word on the Cmax: it is the peak of the concentration-time curve. What is called GI50 is the concentration that inhibits growth by half.
